What was measured:
Assay type in all cases: in vivo
[1] = tested on: Ipomoea hederacea (IPOHE); assay: Pre-emergence glasshouse herbicide test; conditions: pre-emergence (sprayed after one day cultivation), 1000 g/h, evaluated after 13 days, five point scale
Protocol: (§1) Seeds of a variety of test species are sown in standard soil in pots (Alopecurus myosuroides (ALOMY), Setaria faberi (SETFA), Echinochloa crus-galli (ECHCG), Solanum nigrum (SOLNI), Amaranthus retoflexus (AMARE), Ipomoea hederacea (IPOHE)). After cultivation for one day (pre-emergence) or after 8 days cultivation (post-emergence) under controlled conditions in a glasshouse (at 24/16° C., day/night; 14 hours light; 65% humidity), the plants are sprayed with an aqueous spray solution derived from the formulation of the technical active ingredient in acetone/water (50:50) solution containing 0.5% Tween 20 (polyoxyethelyene sorbitan monolaurate, CAS RN 9005-64-5). Compounds are applied at 1000 g/h. The test plants are then grown in a glasshouse under controlled conditions in a glasshouse (at 24/16° C., day/night; 14 hours light; 65% humidity) and watered twice daily. After 13 days for pre and post-emergence, the test is evaluated for the percentage damage caused to the plant. The biological activities are shown in the following table on a five point scale (5=80-100%; 4=60-79%; 3=40-59%; 2=20-39%; 1=0-19%).

[2] = tested on: Alopecurus myosuroides (ALOMY); assay: Pre-emergence glasshouse herbicide test; conditions: pre-emergence (sprayed after one day cultivation), 1000 g/h, evaluated after 13 days, five point scale
Protocol: as §1

Setaria faberi (SETFA) [3] = assay: Pre-emergence glasshouse herbicide test; conditions: pre-emergence (sprayed after one day cultivation), 1000 g/h, evaluated after 13 days, five point scale
Protocol: as §1

[4] = tested on: Amaranthus retoflexus (AMARE); assay: Pre-emergence glasshouse herbicide test; conditions: pre-emergence (sprayed after one day cultivation), 1000 g/h, evaluated after 13 days, five point scale
Protocol: as §1

[5] = tested on: Echinochloa crus-galli (ECHCG); assay: Pre-emergence glasshouse herbicide test; conditions: pre-emergence (sprayed after one day cultivation), 1000 g/h, evaluated after 13 days, five point scale
Protocol: as §1

Solanum nigrum (SOLNI) [6] = assay: Pre-emergence glasshouse herbicide test; conditions: pre-emergence (sprayed after one day cultivation), 1000 g/h, evaluated after 13 days, five point scale
Protocol: as §1

[7] = tested on: Ipomoea hederacea (IPOHE); assay: Post-emergence glasshouse herbicide test; conditions: post-emergence (sprayed after 8 days cultivation), 1000 g/h, evaluated after 13 days, five point scale
Protocol: as §1

[8] = tested on: Alopecurus myosuroides (ALOMY); assay: Post-emergence glasshouse herbicide test; conditions: post-emergence (sprayed after 8 days cultivation), 1000 g/h, evaluated after 13 days, five point scale
Protocol: as §1

Setaria faberi (SETFA) [9] = assay: Post-emergence glasshouse herbicide test; conditions: post-emergence (sprayed after 8 days cultivation), 1000 g/h, evaluated after 13 days, five point scale
Protocol: as §1

[10] = tested on: Amaranthus retoflexus (AMARE); assay: Post-emergence glasshouse herbicide test; conditions: post-emergence (sprayed after 8 days cultivation), 1000 g/h, evaluated after 13 days, five point scale
Protocol: as §1

[11] = tested on: Echinochloa crus-galli (ECHCG); assay: Post-emergence glasshouse herbicide test; conditions: post-emergence (sprayed after 8 days cultivation), 1000 g/h, evaluated after 13 days, five point scale
Protocol: as §1

Solanum nigrum (SOLNI) [12] = assay: Post-emergence glasshouse herbicide test; conditions: post-emergence (sprayed after 8 days cultivation), 1000 g/h, evaluated after 13 days, five point scale
Protocol: as §1

Compound	percentage damage caused to the plant, PRE Application IPOHE [1]	percentage damage caused to the plant, PRE Application ALOMY [2]	percentage damage caused to the plant, PRE Application SETFA (Setaria faberi (SETFA) [3])	percentage damage caused to the plant, PRE Application AMARE [4]	percentage damage caused to the plant, PRE Application ECHCG [5]	percentage damage caused to the plant, PRE Application SOLNI (Solanum nigrum (SOLNI) [6])	percentage damage caused to the plant, POST Application IPOHE [7]	percentage damage caused to the plant, POST Application ALOMY [8]	percentage damage caused to the plant, POST Application SETFA (Setaria faberi (SETFA) [9])	percentage damage caused to the plant, POST Application AMARE [10]	percentage damage caused to the plant, POST Application ECHCG [11]	percentage damage caused to the plant, POST Application SOLNI (Solanum nigrum (SOLNI) [12])
Cc1nc(C(F)(F)F)ccc1-n1nccc(O)c1=O.O=C(O)C(F)(F)F [Compound 1.027]	5 (5=80-100%)	1 (1=0-19%)	4 (4=60-79%)	4 (4=60-79%)	5 (5=80-100%)	5 (5=80-100%)	5 (5=80-100%)	1 (1=0-19%)	4 (4=60-79%)	4 (4=60-79%)	5 (5=80-100%)	5 (5=80-100%)
CCc1ccc(-n2ncc(CC)c(O)c2=O)c(S(C)(=O)=O)c1 [Compound 1.038]	5 (5=80-100%)	4 (4=60-79%)	5 (5=80-100%)	5 (5=80-100%)	5 (5=80-100%)	5 (5=80-100%)	5 (5=80-100%)	4 (4=60-79%)	5 (5=80-100%)	5 (5=80-100%)	5 (5=80-100%)	5 (5=80-100%)
Cc1c(-n2ncc(C(C)C)c(O)c2=O)ccc(S(C)(=O)=O)c1C1=NOCC1 [Compound 1.010]	1 (1=0-19%)	3 (3=40-59%)	2 (2=20-39%)	5 (5=80-100%)	3 (3=40-59%)	1 (1=0-19%)	5 (5=80-100%)	5 (5=80-100%)	5 (5=80-100%)	5 (5=80-100%)	5 (5=80-100%)	5 (5=80-100%)
C=Cc1cnn(-c2ccc(C(F)(F)F)cc2S(C)(=O)=O)c(=O)c1O [Compound 1.053]	5 (5=80-100%)	4 (4=60-79%)	5 (5=80-100%)	5 (5=80-100%)	5 (5=80-100%)	5 (5=80-100%)	5 (5=80-100%)	4 (4=60-79%)	5 (5=80-100%)	5 (5=80-100%)	5 (5=80-100%)	5 (5=80-100%)
C[S+]([O-])c1cnn(-c2ccc(C(F)(F)F)cc2S(C)(=O)=O)c(=O)c1O (stereo not drawn) [Compound 1.041]	4 (4=60-79%)	1 (1=0-19%)	2 (2=20-39%)	5 (5=80-100%)	4 (4=60-79%)	5 (5=80-100%)	4 (4=60-79%)	1 (1=0-19%)	2 (2=20-39%)	5 (5=80-100%)	4 (4=60-79%)	5 (5=80-100%)
Cc1c(-n2ncc([S+](C)[O-])c(O)c2=O)ccc(S(C)(=O)=O)c1C1=NOCC1 (stereo not drawn) [Compound 1.043]	3 (3=40-59%)	1 (1=0-19%)	3 (3=40-59%)	5 (5=80-100%)	3 (3=40-59%)	4 (4=60-79%)	3 (3=40-59%)	1 (1=0-19%)	3 (3=40-59%)	5 (5=80-100%)	3 (3=40-59%)	4 (4=60-79%)
Cc1c(-n2ncc(S(C)(=O)=O)c(O)c2=O)ccc(S(C)(=O)=O)c1C1=NOCC1 [Compound 1.011, 2-[3-(4,5-dihydroisoxazol-3-yl)-2-methyl-4-methylsulfonyl-phenyl]-4-hydroxy-5-methylsulfonyl-pyridazin-3-one]	5 (5=80-100%)	5 (5=80-100%)	5 (5=80-100%)	5 (5=80-100%)	5 (5=80-100%)	5 (5=80-100%)	5 (5=80-100%)	5 (5=80-100%)	5 (5=80-100%)	5 (5=80-100%)	5 (5=80-100%)	5 (5=80-100%)
CC(=O)NC(C)(C)Cc1cnn(-c2ccc(C(F)(F)F)cc2S(C)(=O)=O)c(=O)c1O [Compound 1.044]	4 (4=60-79%)	1 (1=0-19%)	2 (2=20-39%)	5 (5=80-100%)	5 (5=80-100%)	4 (4=60-79%)	4 (4=60-79%)	1 (1=0-19%)	2 (2=20-39%)	5 (5=80-100%)	5 (5=80-100%)	4 (4=60-79%)
